In the supplement of paper PMC13207355:

Assays:
Conditions in all cases: exposure time: 72 h
E31 [1] = patient-derived glioblastoma stem cells of proneural subtype; assay: surviving fraction (nuclei count normalised to DMSO); higher = more cells surviving (less toxic)
E34 [2] = patient-derived glioblastoma stem cells of proneural subtype; assay: as above
FT3469 [3] = normal neural stem cell line; assay: as above
E13 [4] = patient-derived glioblastoma stem cells of classical subtype; assay: as above
E21 [5] = patient-derived glioblastoma stem cells of mesenchymal subtype; assay: as above
E28 [6] = patient-derived glioblastoma stem cells of classical subtype; assay: as above
E57 [7] = patient-derived glioblastoma stem cells of mesenchymal subtype; assay: as above
E31 [8] = assay: phenotypic distance (Euclidean, principal components) from DMSO controls (arbitrary units); higher = stronger morphological change
E34 [9] = assay: as above
FT3469 [10] = assay: as above
E13 [11] = assay: as above
E21 [12] = assay: as above
E28 [13] = assay: as above
E57 [14] = assay: as above
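Throughout, for phenotypic distance (Euclidean, principal components) from DMSO controls: cell Painting imaging in 384-well plates, CellProfiler features reduced to at least 20 principal components, Euclidean distance versus same-plate DMSO vehicle wells (0.1% v/v), median over six images per well.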
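Throughout, for surviving fraction (nuclei count normalised to DMSO): nuclei counted by high-content imaging of Hoechst-stained cells in laminin-coated 384-well plates, relative to 0.1% DMSO vehicle wells, with staurosporine as cell-death control.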

CC(C)C[C@@H](C(=O)N[C@H](C(=O)OC1CCCC1)c1ccccc1)[C@H](O)C(=O)NO [Tosedostat]
Conditions	phenotypic distance	surviving fraction
E13 [4], 4.1 nM	–	0.889
E13 [4], 12.3 nM	–	0.853
E13 [4], 37 nM	–	0.863
E13 [4], 111.1 nM	–	1.01
E13 [4], 333.3 nM	–	0.894
E13 [4], 1000 nM	–	0.894
E13 [4], 3000 nM	–	0.934
E13 [11], 4.1 nM	0.738	–
E13 [11], 12.3 nM	0.631	–
E13 [11], 37 nM	1.06	–
E13 [11], 111.1 nM	1.01	–
E13 [11], 333.3 nM	1.39	–
E13 [11], 1000 nM	1.41	–
E13 [11], 3000 nM	1.3	–
E21 [5], 4.1 nM	–	0.858
E21 [5], 12.3 nM	–	0.909
E21 [5], 37 nM	–	0.793
E21 [5], 111.1 nM	–	0.78
E21 [5], 333.3 nM	–	0.772
E21 [5], 1000 nM	–	0.715
E21 [5], 3000 nM	–	0.507
E21 [12], 4.1 nM	0.795	–
E21 [12], 12.3 nM	0.918	–
E21 [12], 37 nM	0.947	–
E21 [12], 111.1 nM	1.11	–
E21 [12], 333.3 nM	1.62	–
E21 [12], 1000 nM	1.49	–
E21 [12], 3000 nM	2.1	–
E28 [6], 4.1 nM	–	0.904
E28 [6], 12.3 nM	–	0.755
E28 [6], 37 nM	–	0.781
E28 [6], 111.1 nM	–	0.846
E28 [6], 333.3 nM	–	0.657
E28 [6], 1000 nM	–	0.692
E28 [6], 3000 nM	–	0.583
E28 [13], 4.1 nM	0.786	–
E28 [13], 12.3 nM	1.24	–
E28 [13], 37 nM	1.27	–
E28 [13], 111.1 nM	1.73	–
E28 [13], 333.3 nM	1.68	–
E28 [13], 1000 nM	2.2	–
E28 [13], 3000 nM	2.09	–
E31 [1], 4.1 nM	–	0.788
E31 [1], 12.3 nM	–	0.935
E31 [1], 37 nM	–	0.7
E31 [1], 111.1 nM	–	0.861
E31 [1], 333.3 nM	–	0.836
E31 [1], 1000 nM	–	0.796
E31 [1], 3000 nM	–	0.683
E31 [8], 4.1 nM	1.18	–
E31 [8], 12.3 nM	0.639	–
E31 [8], 37 nM	1.52	–
E31 [8], 111.1 nM	0.949	–
E31 [8], 333.3 nM	1.01	–
E31 [8], 1000 nM	1.28	–
E31 [8], 3000 nM	1.86	–
E34 [2], 4.1 nM	–	0.968
E34 [2], 12.3 nM	–	0.827
E34 [2], 37 nM	–	0.787
E34 [2], 111.1 nM	–	0.842
E34 [2], 333.3 nM	–	0.662
E34 [2], 1000 nM	–	0.8
E34 [2], 3000 nM	–	0.833
E34 [9], 4.1 nM	0.805	–
E34 [9], 12.3 nM	1.29	–
E34 [9], 37 nM	0.677	–
E34 [9], 111.1 nM	1.91	–
E34 [9], 333.3 nM	1.92	–
E34 [9], 1000 nM	1.4	–
E34 [9], 3000 nM	1.6	–
E57 [7], 4.1 nM	–	0.806
E57 [7], 12.3 nM	–	0.83
E57 [7], 37 nM	–	0.744
E57 [7], 111.1 nM	–	0.679
E57 [7], 333.3 nM	–	0.635
E57 [7], 1000 nM	–	0.708
E57 [7], 3000 nM	–	0.622
E57 [14], 4.1 nM	1.53	–
E57 [14], 12.3 nM	1.55	–
E57 [14], 37 nM	1.95	–
E57 [14], 111.1 nM	2.24	–
E57 [14], 333.3 nM	2.7	–
E57 [14], 1000 nM	2.08	–
E57 [14], 3000 nM	2.7	–
FT3469 [3], 4.1 nM	–	0.843
FT3469 [3], 12.3 nM	–	0.843
FT3469 [3], 37 nM	–	0.774
FT3469 [3], 111.1 nM	–	0.831
FT3469 [3], 333.3 nM	–	0.809
FT3469 [3], 1000 nM	–	0.759
FT3469 [3], 3000 nM	–	0.746
FT3469 [10], 4.1 nM	1.7	–
FT3469 [10], 12.3 nM	1.82	–
FT3469 [10], 37 nM	1.97	–
FT3469 [10], 111.1 nM	1.7	–
FT3469 [10], 333.3 nM	1.92	–
FT3469 [10], 1000 nM	2.23	–
FT3469 [10], 3000 nM	2.64	–
